Drawing on the METLIN SMRT retention time set (Domingo-Almenara et al. 2019), this text covers RP-LC retention time for 58 compounds.

The nature of the data set: gradient 5% acetonitrile 3 min, to 50% in 2 min, to 85% in 15 min, held 3 min, 100 µL/min. The following applies: column: Zorbax Extend-C18 2.1 x 50 mm; eluents: water / acetonitrile, 0.1% formic acid. The procedure, abridged:
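Data were gathered over 3 months by HPLC coupled to a quadrupole time-of-flight mass spectrometer, operated in positive and negative ionization mode. Mixtures of ~100 pure standards ran on a Zorbax Extend-C18 column (2.1 × 50 mm, 1.8 μm) at 100 μL/min, with water and acetonitrile each containing 0.1% formic acid and dead and dwell volumes of 40 μL and 900 μL. Retention time was read from adduct peaks picked by computer and checked manually.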
Take `CCn1cc(-c2nc(C)c(C(=O)NCc3ccc(C)cc3)s2)c2cccnc21`: the RP-LC retention time was 1000 s.

`CCCCNC(=O)C1CCN(C(=O)c2cc3ccsc3n2Cc2cccc(OC)c2)CC1` gave an RP-LC retention time of 948 s.

`Cc1nc(-c2ccc(C(=O)N3CC(=O)Nc4ccccc43)cc2)no1` had an RP-LC retention time of 668 s.

Turning to `Cc1nc(C)c(C(=O)N2CC(F)(F)C[C@H]2COc2ccc3c(c2)CCC3)s1`, the RP-LC retention time worked out at 1080 s.

`CCn1c(=O)c2c(nc(/C=C/c3ccc(OC)c(OC)c3)n2C)n(CC)c1=O` yielded an RP-LC retention time of 869 s.

The compound `O=C(C1CCCN(c2ncnc3c2nc2n3CCCCC2)C1)N1CCC(N2CCCCC2)CC1` (stereo not drawn) yielded an RP-LC retention time of 590 s.

In turn, `COCCN1CCn2cc(S(=O)(=O)Nc3cccc(Cl)c3)cc2C1=O` yielded an RP-LC retention time of 718 s.

In turn, `O=C(Cc1csc(SCc2ccncc2)n1)N1CCN(c2ccccc2)CC1` registered an RP-LC retention time of 582 s.

The compound `CCOc1ccc(N2C(=O)CN(C(C)c3ccccc3)[C@H]3CS(=O)(=O)C[C@H]32)cc1` (stereo partly drawn) gave an RP-LC retention time of 863 s.

`COc1ccc(NC(=O)Cn2c(C(C)C)nc3c(c2=O)CCN(Cc2ccccc2)C3)cc1OC`: the RP-LC retention time was 659 s.

As for `Cc1ccc(S(=O)(=O)CC(=O)Nc2nc(-c3cccc([N+](=O)[O-])c3)cs2)cc1`, the RP-LC retention time was found to be 993 s.

`O=C(CC1OC(=O)c2ccccc21)c1ccc(Br)cc1` (stereo not drawn) showed an RP-LC retention time of 905 s.

`CC1=NS(=O)(=O)N(Cc2ccccc2)C=C1C(=O)OCc1noc(-c2cccc(Cl)c2)n1` came in with an RP-LC retention time of 1130 s.

The compound `CCC(C(=O)NCCN1CCOCC1)n1nc(C)c2nn(-c3ccccc3)c(C)c2c1=O` (stereo not drawn) yielded an RP-LC retention time of 640 s.

Compound `CCOc1ccc(-c2cc(=O)n(CCCC(=O)Nc3ccc(-n4cnnn4)cc3)cn2)cc1` gave an RP-LC retention time of 696 s.

As to `COC1CCOC2(CCN(C(=O)c3sccc3C)CC2)C1` (stereo not drawn), the RP-LC retention time stood at 732 s.

For `Cc1cc(NC(=O)CC2COc3ccccc3NC2=O)ccc1Br` (stereo not drawn), the RP-LC retention time was found to be 791 s.

The compound `COc1cccc(NS(=O)(=O)c2cc3n(c2)CCCNC3=O)c1` came in with an RP-LC retention time of 632 s.

For `CCOC(=O)c1c(C)c(CCC(=O)N2CCN(c3ncccn3)CC2)n(C)c1C`, the RP-LC retention time is 765 s.

For `O=C(Cn1nc2nc(N3CCCC3)ccn2c1=O)Nc1ccc(Cl)cc1`, the RP-LC retention time is 714 s.

In turn, `Cc1ccc(-c2nnc(N3CCC(C(=O)NCCC(C)C)CC3)o2)cc1` came in with an RP-LC retention time of 881 s.

`Cc1cccnc1NC(=O)C1CCN(S(=O)(=O)c2cc(C(=O)N3CCCCCC3)cs2)CC1` came in with an RP-LC retention time of 675 s.

Take `Cc1ccc(C)c(C(=O)N2CCc3nc(-c4ccc(F)cc4)ncc3C2)c1`: the RP-LC retention time stood at 1060 s.

As to `O=C(NCc1ccc(C(F)(F)F)cc1)c1ccc(-c2cncnc2)nc1`, the RP-LC retention time was 782 s.

Take `CCOc1ncccc1CNC(=O)c1cnccn1`: the RP-LC retention time worked out at 600 s.

The compound `O=C(Nc1ccc(F)c(F)c1)c1cccn1Cc1noc(-c2ccccc2)n1` returned an RP-LC retention time of 1100 s.

The compound `Cc1ccc(Cl)cc1NC(=O)N1CCC(c2nc3ccncc3n2C(C)C)C1` (stereo not drawn) returned an RP-LC retention time of 573 s.

Regarding `CCCNc1cc(N2CCCC(CCC(=O)NCCOC)C2)ncn1` (stereo not drawn), the RP-LC retention time amounted to 592 s.

As for `O=S(=O)(c1ccc(Br)s1)N1CCc2nc(-c3ccccc3)ncc2C1`, the RP-LC retention time turned out to be 1160 s.

In turn, `Cc1nc(-c2ccc(N3CCN(C(=O)c4nn(C)c5ccccc45)CC3)nc2)sc1C` displayed an RP-LC retention time of 966 s.

Compound `CCn1ccc(C(=O)Nc2ccc(N3CCN(c4ccccc4)C3=O)nc2)n1` had an RP-LC retention time of 786 s.

Compound `Cn1ncc2c3ccccc3n(CC(=O)N3CCN(c4ccccc4)CC3)c2c1=O` came in with an RP-LC retention time of 784 s.

`c1ccc(C2(c3nc(-c4ccc(-n5cccn5)nc4)no3)CC2)cc1` showed an RP-LC retention time of 1240 s.

`O=C1NC2CCCCC2C2=NC(CN3CCN(c4ccccc4)CC3)CN12` (stereo not drawn): the RP-LC retention time came out at 655 s.

For `COc1ccc(CNC(=O)N2CCC(c3nc(C(=O)N4CCOCC4)c(C)o3)CC2)cc1`, the RP-LC retention time was 671 s.

With `Cc1ccc(N2C(=O)CN(S(C)(=O)=O)CC2(C)C(=O)NCc2ccccc2)c(C)c1` (stereo not drawn), the RP-LC retention time was determined as 838 s.

`COc1ccc(OC)c(NC(=O)CCc2c(C)nn(-c3cc(N4CCCC4)ncn3)c2C)c1`: the RP-LC retention time is 827 s.

With `CCCCC(=O)N1CCN(c2ncccc2-c2nnc(C(C)C)o2)CC1`, the RP-LC retention time stood at 794 s.

The compound `Cc1nc(-c2nnn(-c3ccc(F)cc3)c2C)no1` came in with an RP-LC retention time of 789 s.

`O=C(COc1cccc(C(F)(F)F)c1)N1CCN(c2ccc(-c3ccco3)nn2)CC1` showed an RP-LC retention time of 739 s.

For `O=C(NC1CCCC1)c1nnn(-c2ccc(F)cc2)c1-c1ccncc1`, the RP-LC retention time was 788 s.

In turn, `O=C(Nc1cccc(Cl)c1)C(=O)c1cn(CC(=O)N2CCOCC2)c2ccccc12` displayed an RP-LC retention time of 997 s.

In turn, `O=C(C1=CN(c2ccc(Cl)cc2)c2cc(F)ccc2S1(=O)=O)N1CCCC1` showed an RP-LC retention time of 858 s.

In the case of `CCn1nccc1C(=O)Nc1ccc(-n2cnnn2)cc1`, the RP-LC retention time came out at 652 s.

The compound `O=C(CCc1conc1-c1ccc(F)cc1)N1CCN(c2ccc(Cl)cc2)CC1` yielded an RP-LC retention time of 1090 s.

In turn, `Cc1cc2c(N3CCCC(C(=O)NCc4ccc(N5CCOCC5)cc4)C3)nccc2s1` (stereo not drawn) returned an RP-LC retention time of 711 s.

For `CCCCNC(=O)CCc1c(C)n(CC)c2nc(-c3ccccc3)nn2c1=O`, the RP-LC retention time came out at 796 s.

In the case of `CC(C)c1ccc(-c2nc(-c3ccc4c(c3)oc(=O)n4C)no2)cc1`, the RP-LC retention time amounted to 1250 s.

`O=C(Cn1nc(N2CCCCCC2)c2ccccc2c1=O)Nc1ccccc1` gave an RP-LC retention time of 1050 s.

`O=C(C1c2ccccc2CCN1C(=O)C1CC1)N1CCN(c2ccccc2F)CC1` (stereo not drawn) gave an RP-LC retention time of 947 s.

In turn, `NC(=O)c1cnc(N[C@@H]2CCCC[C@@H]2N)nc1Nc1cccc(-n2nccn2)c1` came in with an RP-LC retention time of 654 s.

Regarding `CC(C)(Oc1ccc(Cl)cc1)C(=O)Nc1c(-c2ccc(F)cc2)nc2ccccn12`, the RP-LC retention time came to 821 s.

As for `CCc1cc(=O)n(CC(=O)N(C)c2cccc(C)c2)c(-c2ccccc2)n1`, the RP-LC retention time is 1110 s.

Regarding `O=C(NCCN1CCCCCC1)C1CCCN(c2nn3c(=O)c4c(nc3s2)CCCC4)C1` (stereo not drawn), the RP-LC retention time was 608 s.

`CC(C)c1cc(C(=O)Nc2ccc(C#N)cc2)nc2ccnn12` registered an RP-LC retention time of 1030 s.

Compound `Cc1cccc(NC(=O)N2CC(F)(F)C[C@H]2CN2CCCC2)c1C` yielded an RP-LC retention time of 647 s.

In turn, `COCCN1C(=O)[C@H]2CN(Cc3cccc(Cl)c3F)C[C@H]2C1=O` returned an RP-LC retention time of 685 s.

As to `Cc1ccc(Cl)cc1N1CCN(C(=O)C2CCN(S(=O)(=O)c3cn(C(C)C)cn3)CC2)CC1`, the RP-LC retention time turned out to be 964 s.
